Test results reported in patent US5968526A, “T cell epitopes of the major allergens from Dermatophagoides (house dust mite)” (Immulogic Pharamaceutical Corporation, priority 1995, dated 1999).

Key:
[1] = tested on: PBMC from mite-allergic patient; assay: primary T cell (PBMC) proliferation, mite-allergic patient, tritiated thymidine; type: cell-based, human; details: medium 1071 ± 30
Outline: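 Ficoll-purified PBMC (5×10^4/well, triplicate) from one mite-allergic donor cultured 7 days at 37 °C with graded concentrations of purified Der p I, Der p II or their peptides in RPMI-1640 plus 5% human AB serum. 1 μCi ^3H-thymidine added for 16 h; CPM counted, stimulation index = antigen CPM/medium-only CPM.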

[2] = tested on: T cell cultures reactive with Der p I from house dust mite-allergic subjects; assay: secondary T cell proliferation assay, Group I (Der p I) overlapping and candidate/unique peptides; percent of T cell reactivity; type: cell-based, human; details: patient 1733; highest S.I. ≥2.0 recorded
Description: To determine whether a peptide (candidate peptide) or a combination of candidate peptides are likely to comprise a sufficient percentage of the T cell reactivity of house dust mite protein allergens, to induce T cell nonresponsiveness in a substantial percentage of a population of individuals sensitive to house dust mite allergen, an algorithm can be used. In accordance with one such algorithm, a set of overlapping peptides is produced by systematically dividing the protein allergen(s) of interest into al least two overlapping peptide regions of desired lengths (e.g., of about 12-30 amino acid residues in length, preferably not longer than about 25 amino acid residues in length with about 5-15 amino acid residues of overlap). This division into peptide regions can be arbitrary, can be made according to an algorithm, or can be wholly or partially based on regions of house dust mite Group I and/or Group II protein allergens known to comprise at least one T cell epitope. Preferably, at least 50% of the entire house dust mite protein allergen sequence and more preferably, the entire house dust mite protein allergen sequence is divided into two or more peptides. A human T cell stimulation index is determined for each of the peptides in an in vitro T cell proliferation assay as described herein for each individual tested in a population of individuals sensitive to the protein antigen. For example both WO93/08279 and WO94/24281 disclose T cell studies with overlapping peptides derived from Der p I, Der p II, Der f I and Der f II. A candidate peptide or combination of candidate peptides is selected based, at least in part, on the mean human T cell stimulation index of the candidate peptide in the set of peptides tested and the positivity index of the candidate peptide in the set of peptides tested (see, FIGS. 3 and 4). The human T cell stimulation index for the candidate peptide(s) is summed. For each individual, the human T cell stimulation index for the candidate peptide(s) is divided by the sum of the human T cells stimulation indices of the remaining peptides in the set of peptides tested to determine a percent of T cell reactivity as shown below:
Alternatively, the presence of T cell epitopes in the candidate peptide dependent on amino acids residues in an overlapping peptide located at either the N-terminus or C-terminus of the candidate peptide in the amino acid sequence of the protein antigen, but which epitopes are not present in the candidate peptide can be considered in calculating the percent of T cell reactivity in the candidate peptide by use of the following formula: [formula]
In this formula, "NT flanking peptide" refers to a peptide which comprises amino acid residues which overlap with amino acid residues located at the N-terminus of the candidate peptide in the amino acid sequence of the protein antigen from which the peptide is derived; "CT flanking peptide" refers to a peptide which comprises amino acid residues which overlap with amino acid residues located a the C-terminus of the candidate peptide in the amino acid sequence of the protein antigen from which the peptide is derived. In this calculation stimulation indices for the candidate peptide, the N-terminal flanking peptide and the C-terminal flanking peptide are added and divided by the sum total of the stimulation indices for the entire set of overlapping peptides obtain a percent of T cell reactivity for the candidate peptide. If a combination of two or more candidate peptides is selected each of which contains amino acid residues which overlap, this calculation cannot be used to determine a percent of T cell reactivity for each candidate peptide separately. However, a total percent of T cell reactivity for the combination of candidate peptides can be obtained. In this situation, the stimulation indices for all of the candidate peptides which overlap is included in the calculation. […]

[3] = tested on: T cell lines primed in vitro to Der p I; assay: secondary proliferation of Der p I-primed T cell lines (Examples V, VII, XI); type: cell-based, human; details: overlapping Der p I peptides; 33 positive experiments
Outline: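 PBMC were primed with native or recombinant Der p I (10 or 20 μg/ml) for 7 days, then expanded with IL-2 and IL-4. Resting T cells (2×10^4) were cultured 3 days with irradiated autologous EBV-B cells or PBMC and titrated protein or peptides, then pulsed 16 h with 1 μCi ³H-thymidine. S.I. was peak-response CPM over medium-only CPM, with S.I. ≥2.0 scored positive.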

[4] = tested on: T cell lines primed in vitro to Der f I; assay: secondary proliferation of Der f I-primed T cell lines (Examples VI, VII, XI); type: cell-based, human; details: Der f I primed; 8 positive experiments; FIG. 8
Outline: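 PBMC from house dust mite-allergic patients were primed in vitro with recombinant or affinity-purified Der f I at 20 μg/ml (or 10 μg/ml), then rechallenged with Der f I peptides. Antigen-presenting cells were x-irradiated autologous PBMC (3500 Rads) or EBV-transformed B cells (25,000 Rads). Read-out was T cell proliferation.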

[5] = pH-solubility profile; type: physicochemical; details: at a pH in the range pH 6 to pH 8
Description: (§1) 50 mM sodium phosphate stock solutions:
(§2) Stock solution A: 0.66 g […] of monobasic sodium phosphate monohydrate U.S.P. and 50 mg EDTA disodium dihydrate, U.S.P. were dissolved in 100 mL of WFI. The solution was filtered through a 0.2 micron filter
(§3) Stock solution B: 0.71 g […] of dibasic sodium phosphate U.S.P. were disolved in 100 ml WFI. The solution was filtered through a 0.2 micron filter.
(§4) 2. Initial peptide dispersions
(§5) Dispersion A: 3.0 mg of each candidate peptide,DPI-21.2 (SEQ. ID. NO. 28), DFI-22.2 (SEQ. ID. NO. 93), DFI-23.31(SEQ. ID. NO. 165), DFI-26.6 (SEQ. ID. NO. 168), DPII-20.9 (SEQ. ID. NO. 169), DPII-22.14 (SEQ. ID. NO. 180) and DPII-25.15 (SEQ. ID. NO. 188), was weighed out separately and placed in separate 1.5 mL eppendoff vials with 600 μL of stock solution A. The composition was agitated for 1 seconds to mix well.
as §5, with “Dispersion B:” for “Dispersion A:”, “each peptide, DPI-21.2” for “each candidate peptide,DPI-21.2”, “solution B.” for “solution A.”, “The mixture” for “The composition”, “for 5” for “for 1”
(§6) Dispersions A and B were sonicated for 2 minutes for good homogeneity. A small volume was pipetted from each dispersion into a labeled eppendoff vial according to the following volume ratio:
(§7) The resultant solutions/suspensions were stored in the dark at about 22° C.±2 for 24 hours without agitation. The solutions were filtered and filtrates were analyzed for pH and peptide concentration.
(§8) The concentration of filtered peptide solutions was determined by HPLC analysis. In this experiment, the solubility of peptide at each pH is defined as the amount of peptide remaining in solution after filtration through a membrane filter having a 0.2 micrometer pore size. The extent of degradation of peptides was estimated by calculating the percent of total degradant peak area over the total peak area.
The pH values with respect to the solubility values was plotted and are shown in FIG. 37 for each respective peptide. As shown in the solubility curve for each peptide as represented in FIG. 37, peptides DPI-21.2 (SEQ. ID. NO. 28), DFI-22.2 (SEQ. ID. NO. 93), DFI-23.31 (SEQ. ID. NO. 165), DFI-26.6 (SEQ. ID. NO. 168), DPII-20.9 (SEQ. ID. NO. 169), DPII-22.14 (SEQ. ID. NO. 180) and DPII-25.15 (SEQ. ID. NO. 188) are each soluble at greater than 3 mg/ml at a pH in the pH range of pH 6 to pH 8.

[6] = tested on: human IgE; assay: direct binding ELISA of IgE to mite allergen proteins and peptides; details: data not shown
Description: The coating antigens were removed and the wells are blocked with 0.5% gelatin in PBS, 300 μl/well for 2 hours at room temperature. Pooled human plasma (a mix of plasma samples from 20 patients that were skin test positive for commerical mite extract) was serially diluted with PBS-Tween 20 (PBS with 0.05% nonionic detergent Tween-20 Sigma, St. Louis, Mo.) and 100 μl/well a.backslash.was added and incubated overnight at 4° C. (plasma dilutions were tested in duplicate). The second antibody (biotinylated goat anti-Human IgE, 1:1000, Kirkegaard & Perry Laboratories Inc, Gaithersburg, Md.), was added at 100 μl/well for one hour at room temperature. This solution was removed and streptavidin-HRPO, 1:10000, (Southern Biotechnology Associates, Inc., Birmingham, Ala.) was then added at 100 μl/well for one hour at room temperature (all wells are washed three times with PBS-Tween between each incubation step). TMB Membrane Peroxidase Substrate system (Kirkegaard & Perry Laboratories) was freshly miced, and added at […]. The color was allowed to develop for 2-5 minutes. The reaction was stopped by the addition of […] of 1M phosphoric acid. Plates were read on a Microplate IL310 Autoreader (Biotech Instruments, Winooski, Vt.) with a 450 nm filter. The absorbance levels of duplicate wells were averaged. The order of coating antigens listed vertically in these figure legends corresponds in orDer from left to right to the coating antigens listed for each histogram.
The antigen preparation that was used as a positive control was a mixture of the four major biochemically purified mite allergens (term PMA for Purified Mite Allergen); Der f I, Der f II, Der p I and Der p II. The stock was generated at a concentration of 100 μgs of each protein per millimeter or 400 μgs total protein/ml. This preparation was used on each coated ELISA plate.

[7] = tested on: mast cells or basophils; assay: histamine release; type: cell-based, human; details: data not shown
Description: To determine whether a peptide which binds IgE results in the release of mediators, a histamine release assay can be performed using standard reagents and protocols obtained for example, from Amac, Inc. (Westbrook, Me.). Briefly, a buffered solution of a peptide to be tested is combined with an equal volume of whole heparinized blood from an allergic subject. After mixing and incubation, the cells are pelleted and the supernatants are processed and analyzed using a radioimmunoassay to determine the amount of histamine released.

[8] = pH-stability profile / solution stability (HPLC); type: physicochemical; details: pH 6 to pH 8
Description: as §1, §2, §3, §4, §5
as §5, with “Dispersion B:” for “Dispersion A:”, “each peptide, DPI-21.2” for “each candidate peptide,DPI-21.2”, “solution B.” for “solution A.”, “The mixture” for “The composition”, “for 5” for “for 1”
as §6, §7, §8
The pH-stability profiles for each peptide DPI-21.2 (SEQ. ID. NO. 28), DFI-22.2 (SEQ. ID. NO. 93), DFI-23.31(SEQ. ID. NO. 165), DFI-26.6 (SEQ. ID. NO. 168), DPII-20.9 (SEQ. ID. NO. 169), DPII-22.14 (SEQ. ID. NO. 180) and DPII-25.15 (SEQ. ID. NO. 188) in equal concentration combination at 3, 2, and 1 mg/ml per peptide and prepared in duplicate as described above with one set stored at about 5° C. for 24 hours and one set stored at about 22° C.±2 for 24 hours, were calculated and tabulated as a function of the percentage of total of degradant peak area (FIG. 38).

## DP I-10: Der p I peptide (QGVDYWIVRNSWDTNWGDNGYGYF)
[1]; 10 μg/ml
  CPM ± S.D.: 1936 ± 50 CPM
[1]; 30 μg/ml
  CPM ± S.D.: 3042 ± 89 CPM
[1]; 100 μg/ml
  CPM ± S.D.: 2644 ± 63 CPM
[2]
  T cell stimulation index (S.I.): 0
[3]
  T cell reactivity: significant regions of T cell reactivity

## DP I-14: Der p I peptide (QSCRRPNAQRFGISNYCQI)
[2]
  T cell stimulation index (S.I.): 2.3
[4]
  T cell response to Der p I peptides: respond significantly

## DP I-15: Der p I peptide (RFGISNYCQIYPPNANKIREAL)
[2]
  T cell stimulation index (S.I.): 2.8
[4]
  T cell response to Der p I peptides: respond significantly

## DP II-25.15: modified Der p II peptide; unique peptide (DEETVKVMGDDGVLACAIATHAKIRDEE)
[5]
  solubility: greater than 3 mg/ml
[6]
  IgE reactivity, candidate peptides: negative
[7]
  histamine release: negative
[8]
  stability (in words): acceptable solution stability
